Assay results: US5489580A, “Phospholipid compounds and use therefor” (University of Connecticut, priority 1992, dated 1996)
Values after ≈ are worked out from the molar mass of the structure shown.

How the values were obtained:
Type in all cases: cell-based
CEM leukemic cell line = experiment: LDH release cytotoxicity assay, CEM; details: 5×10^5 cells/mL, 10% fetal calf serum, incubation 2, 4, 8 and 24 hours, time of ID50 not given
Experimental: (§1) The compounds of the present invention were tested for their cytotoxic effects upon various leukemic cell lines. The effectiveness of each of the compounds tested was measured through assessing the leakage of the cytosolic enzyme, lactic dehydrogenase (LDH), from the leukemia cells into the media following incubation with the compound.
(§2) The LDH release assay used was a modified microtiter plate enzyme linked immunosorbent assay LDH release assay. Seven mg of each phospholipid compound to be tested was completely dissolved in separate 700 μL volumes of 100% ethanol. The ethanolic solutions were then diluted to form stock solutions by the addition of 70 mL RPMI complete medium until the concentration of phospholipid in each solution was lowered to about 100 μg/mL. An RPMI complete medium contains a RPMI 1640 medium, without red phenol, 20 mM Hepes buffer, 2 mM L-glutamine, 50 μM 2-mercaptoethanol and 20% of fetal calf serum. To form an ethanol control, a 350 μL aliquot of ethanol was added to a small glass bottle containing 35 mL of RPMI complete medium.
(§3) Each stock solution was mixed by magnetic stirring bar at room temperature for one hour and then filtered through a 0.22 μm Millipore filter, where the filter was pre-rinsed with 0.6 mL of RPMI complete medium. The stock solutions were subsequently placed in a shaker in a cold room overnight and subsequently stored in small glass bottles wrapped with aluminum foil at 4° C.
(§4) Each stock solution was shaken for 30 minutes at room temperature. Then each phospholipid stock solution was separately diluted, in small glass vials, with RPMI complete medium to form solutions with phospholipid concentrations of 80 μg, 40 μg, 20 μg and 10 μg.
(§5) For each cell line, the leukemia cells were removed from the culture flask, put into a 50 mL conical tube, centrifuged at 500 rpm for 10 minutes and then washed once with fresh RPMI 1640 medium.
(§6) Aliquots (0.4 mL) of each 100 μg, 80 μg, 40 μg, 20 μg and 10 μg phospholipid solution were added to small vials containing 0.4 mL of cell suspension to form test solutions with phospholipid concentrations of 50, 40, 20, 10 and 5 μg/mL; cell densities of 5×10^5 cells/mL; and 10% fetal calf serum in RPMI complete medium. For an ethanol control group, an aliquot of 0.4 mL of the ethanol control was mixed with 0.4 mL of cell suspension to form a control group with an ethanol concentration of 0.495% and a cell density of 5×10^5 cells/mL. For a negative control group, a 0.4 mL aliquot of RPMI complete medium was added to 0.4 mL of cell suspension to give a cell density of 5×10^5 cells/mL. For a positive control group, cell suspension was diluted with RPMI 1640 medium, which contained 10% fetal calf serum, 20 mM Hepes buffer, 2 mM L-glutamine and 2-mercaptoethanol and stored overnight at -70° C.
(§7) Aliquots (0.2 mL) of each test solution and control group were added to flat bottomed Linbro microtiter plates, in triplicate, and incubated for 2, 4, 8 and 24 hours. Following incubation, the plates were centrifuged at 500 rpm for 5 minutes. Supernatant aliquots of 0.1 mL were then transferred to separate wells on an optic-clear, flat-bottomed microtiter plate. A volume of 0.1 mL of an LDH substrate mixture, containing 5.4×10^-2 M L(+)-lactate, 6.6×10^-4 MINT, provided by Sigma Chemical Company, 2.8×10^-4 M PMS, and 1.3×10^-3M NAD in a 0.2 M Tris buffer of pH 8.2, was added to each well. A Linbro-Titertek Company Lambda microtiter plate reader was used to monitor the absorbance at 490 nm.
(§8) The cytotoxic effectiveness of each compound tested, as provided in Table I, is described in terms of the ID50 of the drug. The ID50 is the concentration of the compound tested that is required to produce a cytotoxicity that is 50% of the control's cytotoxicity.

[1] = tested on: HUT 78 leukemic cell line; experiment: LDH release cytotoxicity assay, HUT 78; details: Homo sapiens, HuT78, 5×10^5 cells/mL, 10% fetal calf serum, incubation 2, 4, 8 and 24 hours, time of ID50 not given
Experimental: as §1, §2, §3, §4, §5, §6, §7, §8

[2] = tested on: NAMALWA leukemic cell line; experiment: LDH release cytotoxicity assay, NAMALWA; details: 5×10^5 cells/mL, 10% fetal calf serum, incubation 2, 4, 8 and 24 hours, time of ID50 not given
Experimental: as §1, §2, §3, §4, §5, §6, §7, §8

HL60 leukemic cell line = experiment: LDH release cytotoxicity assay, HL60; details: Homo sapiens, HL-60, 5×10^5 cells/mL, 10% fetal calf serum, incubation 2, 4, 8 and 24 hours, time of ID50 not given
Experimental: as §1, §2, §3, §4, §5
Aliquots (0.4 mL) of each 100 μg, 80 μg, 40 μg, 20 μg and 10 μg phospholipid solution were added to small vials containing 0.4 mL of cell suspension to form test solutions with phospholipid concentrations of 50, 40, 20, 10 and 5 μg/mL; cell densities of 5×10^5 cells/mL; and 10% fetal calf serum in RPMI complete medium. For an ethanol control group, an aliquot of 0.4 mL of the ethanol control was mixed with 0.4 mL of cell suspension to form a control group with an ethanol concentration of 0.495% and a cell density of 5×10^5 cells/mL. […]
Aliquots (0.2 mL) of each test solution and control group were added to flat bottomed Linbro microtiter plates, in triplicate, and incubated for 2, 4, 8 and 24 hours. […] A Linbro-Titertek Company Lambda microtiter plate reader was used to monitor the absorbance at 490 nm. […]

SMILES | IC50 (CEM leukemic cell line) [µg/mL] | IC50 [1] [µg/mL] | IC50 [2] [µg/mL] | IC50 (HL60 leukemic cell line) [µg/mL]
CCCCCCCCCCCCCCCCCCOCC(COP(=O)([O-])OCC[N+]1(C)CCOCC1)OC (stereo not drawn) [2-O-Methyl-1-O-octadecylglycero-3-phospho-(β-(N-methylmorpholino))ethanol] | 3.6 (≈ 6.36 µM) | 6.6 (≈ 11.7 µM) | 11 (≈ 19.4 µM) | –
CCCCCCCCCCCCCCCCCCOC[C@H](COP(=O)([O-])O[C@H](C)C[N+](C)(C)C)OC [(2R,αR)-2-O-Methyl-1-O-octadecyl-sn-glycero-3-phospho-(α-methyl)choline] | 5.6 (≈ 10.4 µM) | 21 (≈ 39.1 µM) | 22 (≈ 40.9 µM) | –
CCCCCCCCCCCCCCCCCCOC[C@H](COP(=O)([O-])OC[C@@H](C)[N+](C)(C)C)OC [(2R,βR)-2-O-Methyl-1-O-octadecyl-sn-glycero-3-phospho-(β-methyl)choline] | 3.3 (≈ 6.14 µM) | 11.2 (≈ 20.8 µM) | 13.5 (≈ 25.1 µM) | –
CCCCCCCCCCCCCCCCC[C@H]1CO[C@H](COP(=O)([O-])OCC[N+](C)(C)C)CO1 [(2S,5S)-(5-heptadecyl-1,4-dioxan-2-yl)methyloxyphosphocholine] | < 2 | – | < 2 | < 2
CCCCCCCCCCCCCCCCCCOC[C@H](COP(=O)(O)O)OC [(R)-2-O-Methyl-1-O-octadecyl-sn-glycero-3-phosphoric acid] | 2.95 (≈ 6.73 µM) | 3 (≈ 6.84 µM) | 24 (≈ 54.7 µM) | –
CCCCCCCCCCCCCCCCCCOC[C@H](COP(=O)([O-])OC[C@H](C)[N+](C)(C)C)OC [(2R,βS)-2-O-Methyl-1-O-octadecyl-sn-glycero-3-phospho-(β-methyl)choline] | 2.85 (≈ 5.3 µM) | 6.6 (≈ 12.3 µM) | 12.8 (≈ 23.8 µM) | –
CCCCCCCCCCCCCCCCCCOC[C@H](COP(=O)([O-])O[C@@H](C)C[N+](C)(C)C)OC [(2R,αS)-2-O-Methyl-1-O-octadecyl-sn-glycero-3-phospho-(α-methyl)choline] | 4.5 (≈ 8.37 µM) | 15.2 (≈ 28.3 µM) | 21.5 (≈ 40 µM) | –
CCCCCCCCCCCCCCCCC[C@@H]1CO[C@@H](COP(=O)([O-])OCC[N+](C)(C)C)CO1 [(2R,5R)-(5-heptadecyl-1,4-dioxan-2-yl) methyloxyphosphocholine] | 4 (≈ 7.67 µM) | – | 4 (≈ 7.67 µM) | 4 (≈ 7.67 µM)
CCCCCCCCCCCCCCCCC[C@@H]1CO[C@H](COP(=O)([O-])OCC[N+](C)(C)C)CO1 [(2S,5R)-(5-heptadecyl-1,4-dioxan-2-yl)methyloxyphosphocholine] | 4 (≈ 7.67 µM) | – | 4 (≈ 7.67 µM) | 4 (≈ 7.67 µM)
CCCCCCCCCCCCCCCCCCOCC(COP(=O)([O-])OCC[N+]1(C)CCCC1)OC (stereo not drawn) [2-O-Methyl-1-O-octadecylglycero-3-phospho-(β-(N-methylpyrrolidino))ethanol] | 3.4 (≈ 6.18 µM) | 13 (≈ 23.6 µM) | 17.5 (≈ 31.8 µM) | –
CCCCCCCCCCCCCCCCC[C@H]1CO[C@@H](COP(=O)([O-])OCC[N+](C)(C)C)CO1 [(2R,5S)-(5-heptadecyl-1,4-dioxan-2-yl)methyloxyphosphocholine] | < 2 | – | < 2 | < 2
